Marks after values point to notes of the source that are not given here.
What was measured:
Format in all cases: in vivo, human
[1] = tested on: healthy, normal-weight subjects; assay: Clinical study, perception of satiety, Visual Analog Scale (Example 1); conditions: mean from 100 mm Visual Analog Scale
Experimental: (§1) A randomized, placebo-controlled trial was performed in 20 subjects (12 women, 8 men) [body mass index (in kg/m^2): 23]. Subjects received 5 times at least one week apart- a load consisting of galactose (50 g) alone or in combination with guar gum (2,5 g), solved in 250 ml water, or 250 ml water without any additives. Prior to each treatment a catheter was placed in an anticubital vein. Eating behavior and dietary restraint status of subjects were investigated using a validated Dutch translation of the Three Factor Eating Questionnaire (TFEQ). The study was approved by the Medical Ethics Committee of the Maastricht University.

insulin release = assay: Clinical study, insulin levels after ingestion of load (Example 1); conditions: mean
Experimental: as §1

[2] = Clinical study, plasma glucose, galactose, free fatty acids, glycerol (Example 1); conditions: data not shown
Experimental: as §1

GLP-1 secretion = assay: Clinical study, GLP-1 levels after ingestion of load (Example 1); conditions: for GLP-1 (A): mean
Experimental: as §1

[3] = tested on: C-peptide (indicator of insulin secretion); assay: Clinical study, C-peptide levels after ingestion of load (Example 1); conditions: mean
Experimental: as §1

SMILES: O=C[C@H](O)[C@@H](O)[C@@H](O)[C@H](O)CO [Galactose, galactose]
- Satiety (B) ([1]; 0 minutes): 27^ mm
- Satiety (B) ([1]; 30 minutes): 34# mm
- Satiety (B) ([1]; 60 minutes): 33# mm
- Satiety (B) ([1]; 90 minutes): 25# mm
- Satiety (B) ([1]; 120 minutes): 31# mm
- Satiety (B) ([1]; 240 minutes): 20^ mm
- Insulin (B) (insulin release; 0 minutes): 7.3 mU/l
- Insulin (B) (insulin release; 30 minutes after ingestion): 21# mU/l
- Insulin (B) (insulin release; 60 minutes after ingestion): 13 mU/l
- Insulin (B) (insulin release; 90 minutes after ingestion): 12 mU/l
- Insulin (B) (insulin release; 120 minutes after ingestion): 9.9 mU/l
- Insulin (B) (insulin release; 240 minutes after ingestion): 4.7 mU/l
- galactose levels [2]: increased galactose levels significantly
- GLP-1 (A) (GLP-1 secretion; 0 minutes, 50 g galactose (+2,5 g guar gum) in 250 ml water): 3.8 pmol/L
- GLP-1 release compared to water (GLP-1 secretion; 30 minutes after ingestion of the load, p<0.05): significantly elevated
- GLP-1 (A) (GLP-1 secretion; 30 minutes after ingestion): 4.6^# pmol/l
- GLP-1 (A) (GLP-1 secretion; 60 minutes after ingestion): 3.5 pmol/L
- GLP-1 (A) (GLP-1 secretion; 90 minutes after ingestion): 3.2 pmol/L
- GLP-1 (A) (GLP-1 secretion; 120 minutes after ingestion): 3.7 pmol/L
- GLP-1 (A) (GLP-1 secretion; 240 minutes after ingestion): 3.7 pmol/L
- C-peptide (A) ([3]; 0 minutes): 0.61 nmol/L
- C-peptide (A) ([3]; 30 minutes after ingestion): 1.03^# nmol/l
- C-peptide (A) ([3]; 60 minutes after ingestion): 0.89^# nmol/l
- C-peptide (A) ([3]; 120 minutes after ingestion): 0.88 nmol/L

— patent publication US20040087514A1, “Nutritional compositions” (priority 2002, published 2004)
